In the CheMixHub viscosity set:
± gives the uncertainty stated by the source.

Experiment: xn = mol fraction of the nth substance listed

CC1COC(=O)O1 (stereo unspecified) + Cc1ccccc1
viscosity [mPa·s], 101.3 kPa
Settings	293.15 K	298.15 K	303.15 K	308.15 K
x1 = 0.0911	0.6805 ± 0.036	0.6333 ± 0.034	0.5934 ± 0.032	0.5572 ± 0.03
x1 = 0.1223	–	–	0.6125 ± 0.011	–
x1 = 0.1841	0.7726 ± 0.04	0.719 ± 0.037	0.6689 ± 0.035	0.6294 ± 0.034
x1 = 0.2385	–	–	0.7127 ± 0.013	–
x1 = 0.2789	0.8738 ± 0.044	0.8139 ± 0.041	0.7586 ± 0.039	0.7171 ± 0.037
x1 = 0.3493	–	–	0.824 ± 0.014	–
x1 = 0.3757	1.006 ± 0.05	0.9358 ± 0.047	0.8694 ± 0.044	0.8243 ± 0.042
x1 = 0.4553	–	–	0.9463 ± 0.016	–
x1 = 0.4744	1.149 ± 0.056	1.074 ± 0.053	0.9983 ± 0.049	0.9407 ± 0.047
x1 = 0.5561	–	–	1.085 ± 0.018	–
x1 = 0.5752	1.292 ± 0.062	1.195 ± 0.058	1.103 ± 0.054	1.03 ± 0.051
x1 = 0.6524	–	–	1.244 ± 0.021	–
x1 = 0.678	1.529 ± 0.072	1.404 ± 0.067	1.304 ± 0.063	1.203 ± 0.058
x1 = 0.7452	–	–	1.431 ± 0.024	–
x1 = 0.7831	1.856 ± 0.086	1.69 ± 0.079	1.549 ± 0.073	1.42 ± 0.068
x1 = 0.8335	–	–	1.646 ± 0.027	–
x1 = 0.8904	2.256 ± 0.1	2.048 ± 0.095	1.869 ± 0.087	1.71 ± 0.08
x1 = 0.9188	–	–	1.888 ± 0.031	–

c1ccc2ccccc2c1 + Cc1ccccc1
Settings	viscosity [mPa·s]
293.15 K, 101.3 kPa, x1 = 0.00773	0.6067 ± 0.016
293.15 K, 101.3 kPa, x1 = 0.01364	0.606 ± 0.016
293.15 K, 101.3 kPa, x1 = 0.02032	0.6117 ± 0.016
293.15 K, 101.3 kPa, x1 = 0.02587	0.616 ± 0.016
293.15 K, 101.3 kPa, x1 = 0.03281	0.6241 ± 0.016
293.15 K, 101.3 kPa, x1 = 0.03882	0.6277 ± 0.016
293.15 K, 101.3 kPa, x1 = 0.04399	0.6308 ± 0.016
298.15 K, 101 kPa, x1 = 0.0419	0.5848 ± 0.015
298.15 K, 101 kPa, x1 = 0.1026	0.6394 ± 0.017
298.15 K, 101 kPa, x1 = 0.1533	0.6866 ± 0.018
298.15 K, 101 kPa, x1 = 0.2127	0.747 ± 0.02
298.15 K, 101.3 kPa, x1 = 0.00773	0.5676 ± 0.015
298.15 K, 101.3 kPa, x1 = 0.01364	0.5709 ± 0.015
298.15 K, 101.3 kPa, x1 = 0.02032	0.5768 ± 0.015
298.15 K, 101.3 kPa, x1 = 0.02587	0.581 ± 0.015
298.15 K, 101.3 kPa, x1 = 0.03281	0.5863 ± 0.015
298.15 K, 101.3 kPa, x1 = 0.03882	0.591 ± 0.015
298.15 K, 101.3 kPa, x1 = 0.04399	0.5948 ± 0.015
303.15 K, 101 kPa, x1 = 0.3218	0.7855 ± 0.02
308.15 K, 101 kPa, x1 = 0.3218	0.747 ± 0.019
308.15 K, 101 kPa, x1 = 0.3709	0.8101 ± 0.02
313.15 K, 101 kPa, x1 = 0.3218	0.7058 ± 0.018
313.15 K, 101 kPa, x1 = 0.3709	0.7571 ± 0.019
313.15 K, 101.3 kPa, x1 = 0.00773	0.4785 ± 0.013
313.15 K, 101.3 kPa, x1 = 0.01364	0.4809 ± 0.013
313.15 K, 101.3 kPa, x1 = 0.02032	0.4846 ± 0.013
313.15 K, 101.3 kPa, x1 = 0.02587	0.4888 ± 0.013
313.15 K, 101.3 kPa, x1 = 0.03281	0.4919 ± 0.013
313.15 K, 101.3 kPa, x1 = 0.03882	0.4951 ± 0.013
313.15 K, 101.3 kPa, x1 = 0.04399	0.4995 ± 0.013
318.15 K, 101 kPa, x1 = 0.3218	0.661 ± 0.017
318.15 K, 101 kPa, x1 = 0.3709	0.7105 ± 0.018
323.15 K, 101 kPa, x1 = 0.3218	0.627 ± 0.016
323.15 K, 101 kPa, x1 = 0.3709	0.672 ± 0.017
323.15 K, 101.3 kPa, x1 = 0.00773	0.4281 ± 0.011
323.15 K, 101.3 kPa, x1 = 0.01364	0.4311 ± 0.011
323.15 K, 101.3 kPa, x1 = 0.02032	0.4342 ± 0.011
323.15 K, 101.3 kPa, x1 = 0.02587	0.4374 ± 0.011
323.15 K, 101.3 kPa, x1 = 0.03882	0.4433 ± 0.011
323.15 K, 101.3 kPa, x1 = 0.04136	0.4401 ± 0.011
323.15 K, 101.3 kPa, x1 = 0.04399	0.4469 ± 0.011
